The values below come from patent US11352340B2, “Pyridine and pyridimine compounds as PI3K-gamma inhibitors” (Incyte Corporation, priority 2016, dated 2022).

In assay [1] the target is PI3Kδ (p110δ/p85α) Recombinant Human Protein (Homo sapiens (Human), UniProt O00329). As to the kind of experiment: PI3Kδ Scintillation Proximity Assay. Format: biochemical. Particulars: read-out: PI3K-delta SPA IC50. Summed up:
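IC50 was fitted to percent solvent-control activity from SPA scintillation counts after WGA bead capture of 33P-labelled lipid product. Reaction: 120 min, room temperature, 3.4 nM p110δ/p85α, 20 μM PIP2, 2 μM ATP with tracer, MOPS pH 6.7 buffer containing MgCl2, DTT, CHAPS, 2% DMSO.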

In assay [2] the test system is Phosphorylated Ribosomal Protein S6 (RPS6) in THP-1 cells. As to the kind of experiment: THP-1 RPS6 ELISA Assay. The class given is cell-based, Human. Particulars: Homo sapiens, MCP-1 stimulated, phospho-RPS6 ELISA, read-out: THP p-RPS6 ELISA IC50. Summed up: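 Phospho-RPS6 in lysates measured by ELISA at 450 nm, corrected at 540 nm, after MCP-1 challenge (10 nM, 15 min) of THP-1 cells that were starved overnight and exposed to test compound for 2 h at 37° C, 2×10^5 cells/well. Curve fit of percent inhibition gives IC50.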
(In general: ELISA stands for enzyme-linked immunosorbent assay.)

In assay [3] the target is PI3Kγ (p110γ) Recombinant Human Protein (Homo sapiens (Human), UniProt P48736). As to the kind of experiment: PI3K-γ Scintillation Proximity Assay. The class given is biochemical. The note with it: read-out: PI3K-gamma SPA IC50. Summed up:
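Radiometric SPA: reaction at room temperature for 120 min using 2 μM ATP with [γ-33P]ATP tracer, 20 μM PIP2 substrate and 13 nM human PI3Kγ (MOPS pH 6.7, MgCl2, DTT, CHAPS; 2% DMSO). EDTA quench with WGA beads, scintillation count, and IC50 fit of percent-of-control activity.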

Structures can show the parent of a compound that is named as a salt.

PI3Kγ (p110γ) Recombinant Human Protein, sequence (P48736 whole entry): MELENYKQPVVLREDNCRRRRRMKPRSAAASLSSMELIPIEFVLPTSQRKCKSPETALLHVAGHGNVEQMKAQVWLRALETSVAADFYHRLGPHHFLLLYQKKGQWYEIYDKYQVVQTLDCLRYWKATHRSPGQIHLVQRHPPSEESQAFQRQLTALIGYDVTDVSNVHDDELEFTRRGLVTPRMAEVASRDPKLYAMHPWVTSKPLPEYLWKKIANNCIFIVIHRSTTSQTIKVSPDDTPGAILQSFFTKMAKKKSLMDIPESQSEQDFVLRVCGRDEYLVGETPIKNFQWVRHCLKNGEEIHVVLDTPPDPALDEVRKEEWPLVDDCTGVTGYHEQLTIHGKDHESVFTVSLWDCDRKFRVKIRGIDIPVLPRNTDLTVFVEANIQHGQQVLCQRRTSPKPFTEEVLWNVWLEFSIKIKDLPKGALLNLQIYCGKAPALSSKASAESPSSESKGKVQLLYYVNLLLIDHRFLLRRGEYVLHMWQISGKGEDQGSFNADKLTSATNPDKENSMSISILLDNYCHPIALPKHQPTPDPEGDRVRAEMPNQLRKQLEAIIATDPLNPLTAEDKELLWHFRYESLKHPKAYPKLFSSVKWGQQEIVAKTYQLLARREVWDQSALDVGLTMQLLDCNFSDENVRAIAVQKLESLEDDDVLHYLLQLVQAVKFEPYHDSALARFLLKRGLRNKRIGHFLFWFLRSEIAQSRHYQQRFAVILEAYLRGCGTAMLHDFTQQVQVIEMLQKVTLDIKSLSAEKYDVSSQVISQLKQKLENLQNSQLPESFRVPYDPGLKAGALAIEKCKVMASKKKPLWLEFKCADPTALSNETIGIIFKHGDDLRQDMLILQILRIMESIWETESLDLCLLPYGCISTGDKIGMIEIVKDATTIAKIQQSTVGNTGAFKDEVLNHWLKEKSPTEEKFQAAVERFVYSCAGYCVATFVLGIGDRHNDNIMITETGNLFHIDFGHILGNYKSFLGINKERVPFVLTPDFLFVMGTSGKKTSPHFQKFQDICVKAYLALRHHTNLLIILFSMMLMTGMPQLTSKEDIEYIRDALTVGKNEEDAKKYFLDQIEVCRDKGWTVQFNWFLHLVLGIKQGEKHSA
PI3Kδ (p110δ/p85α) Recombinant Human Protein, sequence (O00329 whole entry): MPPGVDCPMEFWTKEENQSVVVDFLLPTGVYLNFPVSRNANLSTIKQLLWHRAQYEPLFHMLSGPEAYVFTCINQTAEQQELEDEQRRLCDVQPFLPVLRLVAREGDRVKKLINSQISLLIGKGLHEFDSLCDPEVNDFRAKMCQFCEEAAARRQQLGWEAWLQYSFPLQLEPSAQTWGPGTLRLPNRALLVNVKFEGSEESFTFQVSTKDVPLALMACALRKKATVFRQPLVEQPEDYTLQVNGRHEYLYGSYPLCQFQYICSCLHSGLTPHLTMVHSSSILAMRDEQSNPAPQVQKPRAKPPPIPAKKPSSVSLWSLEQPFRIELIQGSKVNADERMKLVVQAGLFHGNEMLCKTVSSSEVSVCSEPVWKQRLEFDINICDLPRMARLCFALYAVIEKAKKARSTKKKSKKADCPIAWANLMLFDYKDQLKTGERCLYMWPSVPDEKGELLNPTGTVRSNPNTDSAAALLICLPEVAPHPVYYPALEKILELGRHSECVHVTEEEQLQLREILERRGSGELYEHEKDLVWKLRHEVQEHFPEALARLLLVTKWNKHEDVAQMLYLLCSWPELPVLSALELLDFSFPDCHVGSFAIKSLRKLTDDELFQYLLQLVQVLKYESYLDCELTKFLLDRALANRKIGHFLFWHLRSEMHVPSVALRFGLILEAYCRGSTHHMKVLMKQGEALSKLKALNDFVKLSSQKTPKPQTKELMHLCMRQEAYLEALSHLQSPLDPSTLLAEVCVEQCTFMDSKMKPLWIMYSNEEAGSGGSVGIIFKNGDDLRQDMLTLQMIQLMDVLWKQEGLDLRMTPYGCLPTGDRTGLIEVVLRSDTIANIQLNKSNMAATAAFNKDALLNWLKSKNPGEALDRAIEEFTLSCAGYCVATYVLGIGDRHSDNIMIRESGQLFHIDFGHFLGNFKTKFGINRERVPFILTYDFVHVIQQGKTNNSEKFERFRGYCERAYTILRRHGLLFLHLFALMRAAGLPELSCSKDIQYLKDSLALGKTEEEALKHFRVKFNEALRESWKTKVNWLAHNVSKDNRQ
PI3Kδ (p110δ/p85α) Recombinant Human Protein, sequence (P27986 whole entry partner): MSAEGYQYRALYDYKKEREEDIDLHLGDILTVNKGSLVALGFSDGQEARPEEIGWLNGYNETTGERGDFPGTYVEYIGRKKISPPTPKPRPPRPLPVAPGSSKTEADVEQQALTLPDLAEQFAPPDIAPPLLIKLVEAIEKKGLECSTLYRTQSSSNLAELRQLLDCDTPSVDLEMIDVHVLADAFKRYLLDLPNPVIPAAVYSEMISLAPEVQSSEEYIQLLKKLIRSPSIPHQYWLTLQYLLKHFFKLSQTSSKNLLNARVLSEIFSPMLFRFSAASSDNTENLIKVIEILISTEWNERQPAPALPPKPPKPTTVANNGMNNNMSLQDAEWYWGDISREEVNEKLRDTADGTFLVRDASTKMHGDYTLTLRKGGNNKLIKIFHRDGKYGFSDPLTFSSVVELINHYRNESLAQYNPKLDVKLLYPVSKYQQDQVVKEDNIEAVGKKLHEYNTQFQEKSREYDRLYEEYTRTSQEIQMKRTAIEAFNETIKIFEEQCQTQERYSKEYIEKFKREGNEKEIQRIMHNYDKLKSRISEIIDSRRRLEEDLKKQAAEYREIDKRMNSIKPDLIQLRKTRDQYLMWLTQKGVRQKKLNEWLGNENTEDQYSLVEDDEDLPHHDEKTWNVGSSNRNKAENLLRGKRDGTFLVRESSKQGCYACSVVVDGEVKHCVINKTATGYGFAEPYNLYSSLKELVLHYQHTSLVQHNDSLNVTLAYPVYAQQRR

For the molecule `Cc1nc(-c2cc(-c3cncc(C(=O)N4CCC4)c3)ccn2)[nH]c1C` [Example 191, 5-(Azetidin-1-ylcarbonyl)-2′-(4,5-dimethyl-1H-imidazol-2-yl)-3,4′-bipyridine trifluoroacetate salt], the IC50 in assay [1] is at most 50 nM; in assay [2], at most 300 nM; in assay [3] it was at most 50 nM.

Regarding `Cc1nc(-c2cc(-c3cncc(C(=O)NCc4ccccc4)c3)ccn2)[nH]c1C` [Example 192, N-Benzyl-2′-(4,5-dimethyl-1H-imidazol-2-yl)-3,4′-bipyridine-5-carboxamide trifluoroacetate salt], the IC50 in assay [1] is at most 100 nM; in assay [2], 1000 to 5000 nM; in assay [3], at most 100 nM.

`Cc1nc(-c2cc(-c3cncc(C(=O)N(C)Cc4ccccc4)c3)ccn2)[nH]c1C` [Example 193, N-Benzyl-2′-(4,5-dimethyl-1H-imidazol-2-yl)-N-methyl-3,4′-bipyridine-5-carboxamide trifluoroacetate salt]: the IC50 in assay [1] was at most 50 nM; in assay [2] it was at most 300 nM; in assay [3], at most 50 nM.

`Cc1nc(-c2cc(-c3cncc(C(=O)N(C)c4ccccc4)c3)ccn2)[nH]c1C` [Example 194, 2′-(4,5-Dimethyl-1H-imidazol-2-yl)-N-methyl-N-phenyl-3,4′-bipyridine-5-carboxamide trifluoroacetate salt]: the IC50 in assay [1] is at most 50 nM; in assay [2] it was at most 300 nM; in assay [3] it was at most 50 nM.

For `Cc1nc(-c2cc(-c3cncc(C(=O)N4CCC(c5cnccn5)C4)c3)ccn2)[nH]c1C` (stereo not drawn) [Example 197, 2′-(4,5-Dimethyl-1H-imidazol-2-yl)-5-[(3-pyrazin-2-ylpyrrolidin-1-yl)carbonyl]-3,4′-bipyridine trifluoroacetate salt], the values for the IC50 in assay [1], in assay [2] and in assay [3] were at most 50 nM, 300 to 1000 nM and at most 100 nM, respectively.

For the molecule `CCN(C)C(=O)c1cncc(-c2ccnc(-c3nc(C)c(C)[nH]3)c2)c1` [Example 198, 2′-(4,5-Dimethyl-1H-imidazol-2-yl)-N-ethyl-N-methyl-3,4′-bipyridine-5-carboxamide trifluoroacetate salt], the IC50 was at most 50 nM in assay [1], 300 to 1000 nM in assay [2] and at most 50 nM in assay [3].

On to `COC1CN(C(=O)c2cncc(-c3ccnc(-c4nc(C)c(C)[nH]4)c3)c2)C1` [Example 199, 2′-(4,5-Dimethyl-1H-imidazol-2-yl)-5-[(3-methoxyazetidin-1-yl)carbonyl]-3,4′-bipyridine], for which the values for the IC50 in assay [1], in assay [2] and in assay [3] were at most 50 nM, at most 300 nM and at most 50 nM, respectively.

For `Cc1nc(-c2cc(-c3cncc(C(=O)N(C)CCO)c3)ccn2)[nH]c1C` [Example 201, 2′-(4,5-Dimethyl-1H-imidazol-2-yl)-N-(2-hydroxyethyl)-N-methyl-3,4′-bipyridine-5-carboxamide trifluoroacetate salt], the IC50 was at most 500 nM in assay [1], 300 to 1000 nM in assay [2] and at most 50 nM in assay [3].

Take `Cc1nc(-c2cc(-c3cncc(C(=O)NCC4CC4)c3)ccn2)[nH]c1C` [Example 202, N-(Cyclopropylmethyl)-2′-(4,5-dimethyl-1H-imidazol-2-yl)-3,4′-bipyridine-5-carboxamide trifluoroacetate salt]: the values for the IC50 in assay [1], in assay [2] and in assay [3] were at most 100 nM, 300 to 1000 nM and at most 100 nM, respectively.

In the case of `Cc1nc(-c2cc(-c3cncc(C(=O)N(C)CC#N)c3)ccn2)[nH]c1C` [Example 203, N-(Cyanomethyl)-2′-(4,5-dimethyl-1H-imidazol-2-yl)-N-methyl-3,4′-bipyridine-5-carboxamide], the values for the IC50 in assay [1], in assay [2] and in assay [3] were at most 100 nM, 300 to 1000 nM and at most 50 nM, respectively.

In the case of `Cc1nc(-c2cc(-c3cncc(C(=O)N(C)CC4(CO)CC4)c3)ccn2)[nH]c1C` [Example 205, 2′-(4,5-Dimethyl-1H-imidazol-2-yl)-N-{[1-(hydroxymethyl)cyclopropyl]methyl}-N-methyl-3,4′-bipyridine-5-carboxamide trifluoroacetate salt], the IC50 in assay [1] is at most 100 nM; in assay [2] it was 300 to 1000 nM; in assay [3] it was at most 50 nM.

With `Cc1nc(-c2cc(-c3cncc(C(=O)NCC4CCC4)c3)ccn2)[nH]c1C` [Example 206, N-(Cyclobutylmethyl)-2′-(4,5-dimethyl-1H-imidazol-2-yl)-3,4′-bipyridine-5-carboxamide trifluoroacetate salt], the IC50 is at most 100 nM in assay [1], 1000 to 5000 nM in assay [2] and at most 100 nM in assay [3].

In the case of `Cc1nc(-c2cc(-c3cncc(C(=O)NCC4CCCC4)c3)ccn2)[nH]c1C` [Example 207, N-(Cyclopentylmethyl)-2′-(4,5-dimethyl-1H-imidazol-2-yl)-3,4′-bipyridine-5-carboxamide trifluoroacetate salt], the IC50 in assay [1] is at most 500 nM; in assay [2] it was 1000 to 5000 nM; in assay [3], at most 50 nM.

On to `Cc1nc(-c2cc(-c3cncc(C(=O)NC(C)(C)C)c3)ccn2)[nH]c1C` [Example 208, N-(tert-Butyl)-2′-(4,5-dimethyl-1H-imidazol-2-yl)-3,4′-bipyridine-5-carboxamide trifluoroacetate salt], for which the IC50 in assay [1] is at most 100 nM; in assay [2], 1000 to 5000 nM; in assay [3] it was at most 50 nM.

Regarding `CCC1CCN(C(=O)c2cncc(-c3ccnc(-c4nc(C)c(C)[nH]4)c3)c2)C1` (stereo not drawn) [Example 211, 2′-(4,5-Dimethyl-1H-imidazol-2-yl)-5-[(3-ethylpyrrolidin-1-yl)carbonyl]-3,4′-bipyridine trifluoroacetate salt], the IC50 in assay [1] is at most 50 nM; in assay [2] it was at most 300 nM; in assay [3], at most 50 nM.

Regarding `Cc1nc(-c2cc(-c3cncc(C(=O)N4CCC5(CC5)C4)c3)ccn2)[nH]c1C` [Example 212, 5-(5-Azaspiro[2.4]hept-5-ylcarbonyl)-2′-(4,5-dimethyl-1H-imidazol-2-yl)-3,4′-bipyridine trifluoroacetate salt], the IC50 in assay [1] is at most 50 nM; in assay [2] it was at most 300 nM; in assay [3] it was at most 50 nM.

For the molecule `CO[C@H]1CCN(C(=O)c2cncc(-c3ccnc(-c4nc(C)c(C)[nH]4)c3)c2)C1` [Example 212B, 2′-(4,5-Dimethyl-1H-imidazol-2-yl)-5-{[(3S)-3-methoxypyrrolidin-1-yl]carbonyl}-3,4′-bipyridine trifluoroacetate salt], the IC50 was at most 100 nM in assay [1], 300 to 1000 nM in assay [2] and at most 50 nM in assay [3].

As to `Cc1nc(-c2cc(C3=CCCN(S(=O)(=O)c4ccccc4)C3)ccn2)[nH]c1C` [Example 214, 2′-(4,5-Dimethyl-1H-imidazol-2-yl)-1-(phenylsulfonyl)-1,2,5,6-tetrahydro-3,4′-bipyridine Trifluoroacetate Salt], the IC50 is at most 500 nM in assay [1], above 5000 nM in assay [2] and at most 50 nM in assay [3].

Take `Cc1nc(-c2cc(C3=CCCN(S(=O)(=O)c4ccc(Cl)cc4)C3)ccn2)[nH]c1C` [Example 221, 4-(1-(4-Chlorophenylsulfonyl)-1,2,5,6-tetrahydropyridin-3-yl)-2-(4,5-dimethyl-1H-imidazol-2-yl)pyridine trifluoroacetate salt]: the values for the IC50 in assay [1], in assay [2] and in assay [3] were at most 500 nM, above 5000 nM and at most 100 nM, respectively.

Take `Cc1nc(-c2cc(-c3cncc(N4CC[C@@H](O)C4)c3)ccn2)[nH]c1C` [Example 231, (3R)-1-[2′-(4,5-Dimethyl-1H-imidazol-2-yl)-3,4′-bipyridin-5-yl]pyrrolidin-3-ol]: the figures for the IC50 in assay [1], in assay [2] and in assay [3] were at most 100 nM, 300 to 1000 nM and at most 50 nM, respectively.

With `Cc1nc(-c2cc(-c3cncc(N4CC[C@H](O)C4)c3)ccn2)[nH]c1C` [Example 232, (3S)-1-[2′-(4,5-Dimethyl-1H-imidazol-2-yl)-3,4′-bipyridin-5-yl]pyrrolidin-3-ol], the IC50 in assay [1] is at most 500 nM; in assay [2], 300 to 1000 nM; in assay [3] it was at most 100 nM.

Take `Cc1nc(-c2cc(-c3cncc(Nc4ccccc4)c3)ccn2)[nH]c1C` [Example 233, 2′-(4,5-Dimethyl-1H-imidazol-2-yl)-N-phenyl-3,4′-bipyridin-5-amine]: the values for the IC50 in assay [1], in assay [2] and in assay [3] were at most 500 nM, 1000 to 5000 nM and at most 50 nM, respectively.

Take `Cc1nc(-c2cc(-c3cncc(C4=CCN(S(C)(=O)=O)C4)c3)ccn2)[nH]c1C` [Example 237, 2′-(4,5-Dimethyl-1H-imidazol-2-yl)-5-[1-(methylsulfonyl)-2,5-dihydro-1H-pyrrol-3-yl]-3,4′-bipyridine]: the IC50 in assay [1] was at most 50 nM; in assay [2] it was at most 300 nM; in assay [3] it was at most 50 nM.

On to `CCOC(=O)c1nc(-c2cc(-c3cncc(S(C)(=O)=O)c3)ccn2)[nH]c1C` [Example 241, Ethyl 5-methyl-2-[5-(methylsulfonyl)-3,4′-bipyridin-2′-yl]-1H-imidazole-4-carboxylate], for which the IC50 in assay [1] is at most 50 nM; in assay [2] it was 300 to 1000 nM; in assay [3] it was at most 100 nM.
